Results as given in PubChem BioAssay (NCI).
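96-well plates; 48 h exposure; 5 concentrations. Endpoints by linear interpolation between flanking doses. Not reached: highest tested concentration assigned. Definition used: TGI = concentration required for complete inhibition of growth.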

Legend:
Experiment in all cases: NCI anticancer screen, dose series, 48 h
DMS 114 small cell lung = test system: DMS 114 small cell lung
HOP-18 NSCLC = test system: HOP-18 NSCLC
NCI/ADR-RES ovarian = test system: NCI/ADR-RES ovarian
MDA-MB-231 breast = test system: MDA-MB-231 breast
SR leukemia = test system: SR leukemia
HCC-2998 colon = test system: HCC-2998 colon
T-47D breast = test system: T-47D breast

## COc1ccc(/C(Cl)=C(\C=O)c2ccc(F)cc2)cc1OC
DMS 114 small cell lung
  TGI: 46.2 µM
HOP-18 NSCLC
  TGI: 44.2 µM

## N=C(N)c1ccc(N=Nc2c(O)ccc3c2[nH]c2ccccc23)cc1
NCI/ADR-RES ovarian
  TGI: > 100 µM

## COc1ccc2nc3ccccc3c(NCCCCCCN(CCCl)CCCl)c2c1
MDA-MB-231 breast
  TGI: 3.37 µM
SR leukemia
  TGI: 346 nM

## COC(=O)C1=C(C(=O)OC)SC2(S1)C1=C(CCCC1)SC(C(=O)OC)=C2C(=O)OC
HCC-2998 colon
  TGI: 28.2 µM
MDA-MB-231 breast
  TGI: 29.3 µM
NCI/ADR-RES ovarian
  TGI: 40.9 µM
T-47D breast
  TGI: 13.5 µM
